Columns and labels:
Type in all cases: cell-based, human
HaCaT cells = test: Comet assay (DNA damage); settings: for Toxicity Scale 0 (comets in class 0) / Toxicity Scale 1 (comets in class 1) / Toxicity Scale 2 (comets in class 2) / Toxicity Scale 3 (comets in class 3) / Toxicity Scale 4 (comets in class 4): per 100 comets
Source text: The exposure of the UVA can cause a DNA damage. To examine the effect of the ergothioneine on the UVA-induced DNA damage, we use a comet assay to analyze the DNA damage. The comet assay involves an encapsulation of the cells in a low-melting-point agarose suspension, the cells lysis in alkaline (pH>13) conditions, a short-term electrophoresis of the suspended lysed cells, and a stained DNA of an electrophoretic stripe using the fluorescent dye. The term “comet” refers to a pattern of a DNA migration through the electrophoresis gel, wherein the DNA migration is caused by a DNA cleavage fragment of the damaged cell released from its nucleus, and the DNA cleavage fragment moves faster than the nucleus of a non-damaged cell in an electric field and results in structure resembling the comet. […] Then, the HaCaT cells are performed the comet assay and stained by red fluorescent dye. The pattern of the nucleus of the damaged cell resembles the comet in the comet assay, which is caused by the DNA cleavage fragment of the damaged cell. In contrast, the pattern of the nucleus of the normal cell, which has non-DNA cleavage fragment, is spherical in the comet assay. […] In FIG. 4 and Table 1, the UVA irradiation (15 J/cm^2) for 4 hours triggers the DNA breakage of the nucleus shown as the tail. The overall score of the group treated with the UVA irradiation alone is 356.3±2.1. […] Therefore, the ergothioneine can inhibit the DNA damage and has a protective property.

[1] = system: UVA-irradiated HaCaT cells; test: TUNEL assay (UVA-induced apoptosis); settings: 500 nM 24 hours prior to UVA 15 J/cm^2, vs UVA alone
Experimental: The apoptosis can induce DNA double-strand breaks to generate a DNA fragment, To examine the effect of the ergothioneine on the UVA-induced apoptosis, an apoptotic cell death is measured using a terminal deoxyucleotidyl transferase-meditated dUTP-fluorescein nick end-labeking (TUNEL) assay, and protein expressions of apoptosis-related proteins, Caspase-3, Caspase-9, Bax and Bcl-2, are measured using a Western blot analysis. Therefore, the aforementioned methods in this example can analyze whether pretreating with the ergothioneine improves the UVA-induced apoptosis. A chromosome breakage represents an initial stage of a […]. The TUNEL assay is based on a presence of nicks in the DNA which can be identified by terminal deoxynucleotidyl transferase (TdT) at 3′ OH ends, ad the 3′ OH ends bind to dUTPs that are secondarily labeled with a fluorescent marker. After a coloration, the cells suffered the apoptosis can be identified. The HaCaT cells are incubated with or without the ergothioneine for 24 hours, wherein the concentration of the ergothioneine is 500 nM. After incubation, the HaCaT cells are exposed to the UVA (15 J/cm^2), and then cultured for 4 hours, Then, the HaCaT cells are incubated with TUNEL reaction buffer. The stained cells are visualized using the fluorescence microscope and photographed. […] FIG. 5-(B) is the quantitative diagram of the TUNEL assay.

Nrf2 = test: Western blot of Nrf2 signaling pathway associated proteins (Nrf2, Keap-1, HO-1, NQO-1, γ-GCLC)
Experimental: The effect of the ergothioneine on expressions of Nrf2 protein and downstream proteins of the HaCaT cells is monitored by the Western blot analysis. The detected downstream proteins are heme oxygenase-1 (HO-1) γ-glutamylcysteine ligase catalytic subunit (γ-GCLC) and NAD(P)H: quinone acceptor oxidoreductase 1 (NQO-1). The HaCaT cells are incubated with or without the ergothioneine for 1 hour or 4 hours, wherein the concentration of the ergothioneine is 125 nM, 250 nM and 500 nM, respectively. After incubation, the HaCaT cells are suspended in a lysis buffer to collect the proteins. FIG. 7 illustrates the effect of the ergothioneine on the expressions of the Nrf2 signaling pathway associated proteins of the HaCaT cells.
In addition, we examine the effect of the ergothioneine on the expressions of the Nrf2 and the Nrf2 pathway associated proteins of the HaCaT cells treated with the UVA irradiation. The HaCaT cells are incubated with or without the ergothioneine for 24 hours, wherein the concentration of the ergothioneine is 125 nM, 250 nM and 500 nM, respectively. After incubation, the HaCaT cells are exposed to the UVA (15 J/cm^2), and then cultured for 1 hour or 4 hours. Next, the HaCaT cells are suspended in the lysis buffer to collect the proteins, and the protein expressions are measured by the Western blot analysis. FIG. 8 illustrates the effect of the ergothioneine on the expressions of the Nrf2 signaling pathway associated proteins of the UVA-irradiated HaCaT cells. FIG. 8-(A) represents the Western blot analysis results of total Nrf2 and Keap-1 protein levels, wherein the HaCaT cells are pretreated with the ergothioneine (125-500 nM), and then exposed to the UVA for 1 hour. FIG. 8-(B) represents the Western blot analysis results of the HO-1 the NQO-1 and the γ-GCLC proteins, wherein the HaCaT cells are pretreated with the ergothioneine (125-500 nM), and then exposed to the UVA for 4 hour.

[2] = 125-500 nM 24 hours pretreatment, UVA 15 J/cm^2, 4 hours

## C[N+](C)(C)[C@@H](Cc1c[nH]c(=S)[nH]1)C(=O)[O-] [ergothioneine, 2-mercapto histidine trimethylbetain]
HaCaT cells; 250 nM + 15 J/cm^2 UVA
  Total Damage (overall comet score, 0-400): 144 ± 10
  Toxicity Scale 0 (comets in class 0): 20 ± 1
  Toxicity Scale 1 (comets in class 1): 27 ± 6
  Toxicity Scale 2 (comets in class 2): 52 ± 9
  Toxicity Scale 3 (comets in class 3): 0 ± 0
  Toxicity Scale 4 (comets in class 4): 0 ± 0
HaCaT cells; 250 nM, no UVA
  Total Damage (overall comet score, 0-400): 14 ± 4
  Toxicity Scale 0 (comets in class 0): 88 ± 4
  Toxicity Scale 1 (comets in class 1): 10 ± 4
  Toxicity Scale 2 (comets in class 2): 2 ± 2
  Toxicity Scale 3 (comets in class 3): 0 ± 0
  Toxicity Scale 4 (comets in class 4): 0 ± 0
HaCaT cells; 500 nM + 15 J/cm^2 UVA
  Total Damage (overall comet score, 0-400): 59.0±7.0
  Toxicity Scale 0 (comets in class 0): 49 ± 7
  Toxicity Scale 1 (comets in class 1): 43 ± 8
  Toxicity Scale 2 (comets in class 2): 8 ± 1
  Toxicity Scale 3 (comets in class 3): 0 ± 0
  Toxicity Scale 4 (comets in class 4): 0 ± 0
HaCaT cells; 500 nM + 15 J/cm^2 UVA, listed as EGT
  Total Damage (overall comet score, 0-400): 59 ± 7
HaCaT cells; 500 nM, no UVA
  Total Damage (overall comet score, 0-400): 22 ± 6
  Toxicity Scale 0 (comets in class 0): 81 ± 6
  Toxicity Scale 1 (comets in class 1): 16 ± 7
  Toxicity Scale 2 (comets in class 2): 3 ± 2
  Toxicity Scale 3 (comets in class 3): 0 ± 0
  Toxicity Scale 4 (comets in class 4): 0 ± 0
[1]
  amount of TUNEL fluorescence (apoptosis): enormously reduced
Nrf2; 125-500 nM 24 hours pretreatment, UVA 15 J/cm^2, 1 hour
  Nrf2 expression (Nrf2/Keap-1 ratio): dramatically increases the Nrf2 expression
Nrf2; [2]
  expression of HO-1 protein: also increased
  expression of NQO-1 protein: also increased
  expression of γ-GCLC protein: also increased
Nrf2; 125-500 nM for 1 hour, no UVA, especially with 500 nM
  total Nrf2 protein level: increases the total Nrf2 protein level
Nrf2; 125-500 nM for 4 hours, no UVA
  expression of HO-1 protein: also increased
  expression of NQO-1 protein: also increased
  expression of γ-GCLC protein: also increased

— patent US20160067221A1, “USE OF ERGOTHIONEINE FOR INDUCING ACTIVITY OF NRF2 IN CELL” (China Medical University, priority 2014, published 2016)
